Reference: patent US20240391954A1, “MC4R AGONIST PEPTIDES” (The Regents of the University of Michigan, priority 2021, published 2024)
Read-outs that look alike come from different tables or passages of the source. Positions of bridges follow the written chain, without caps; N, C: chain ends. Non-standard residues stand in square brackets, D forms with d. Residues, ends and D or L forms follow the SMILES beside them. dPhe(4-Br) = N[C@H](Cc1ccc(Br)cc1)C(=O)O; dPhe(4-F) = N[C@H](Cc1ccc(F)cc1)C(=O)O; Nle = CCCC[C@H](N)C(=O)O; dAbu = CC[C@@H](N)C(=O)O; Aib = CC(C)(N)C(=O)O

Experiments:
human MC4R = molecular target: T1, human MC4R (Homo sapiens, UniProt P32245); assay: split-luciferase cAMP sensor assay, agonist mode (measurement window 1), hMC4R; format: cell-based; conditions: for Emax: read-out: MC4R cAMP % max activation; for EC50: read-out: MC4R cAMP EC50
T1 construct: host or cells: HEK-293 cells stably expressing the GScAMP22F split-luciferase cAMP sensor and hMC4R, G418 selection
Procedure, shortened: (§1)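 Live stable cell lines carrying receptor plus GloSensor cAMP22f split-luciferase, loaded with 4% D-luciferin in serum-free medium (~1% serum estimated during assay). Luminescence recorded during in-line peptide addition; direct agonist effect read in window 1, with 20 μM forskolin as normalization reference. EC50 from four-parameter sigmoid fit.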

[1] = Plasma protein binding (Centrifree ultrafiltration); format: in vitro ADME
Protocol: Solutions of test compound in DMSO were prepared at 1 mM, 100 uM and 10 uM, 5 ul of each solution of test compound was added to 495 uL plasma, and incubated at 25° C. for 5 min. Sample was added to a Centrifree® device, then centrifuged at 2000× g for 20 min to obtain desired filtrate volume. Initial plasma samples and ultrafiltrates were subjected to LC-MS/MS. % Free peptide=(concentration of ultrafiltrates/concentration of plasma)×100%. % Bound=100%−% Free

human MC3R = molecular target: T2, human MC3R (Homo sapiens, UniProt P41968); assay: split-luciferase cAMP sensor assay, agonist mode (measurement window 1), hMC3R; format: cell-based; conditions: for Emax: read-out: MC3R cAMP % max activation; for MC4R selectivity vs MC3R: MC4R versus MC3R
T2 construct: expressed in transfected cells; host or cells: HEK-293 cells stably expressing the GScAMP22F split-luciferase cAMP sensor (parent reporter line from Promega); MC3R clone generated in-house, G418 selection
Procedure, shortened: as §1

Mouse plasma stability = format: in vitro ADME; conditions: 37° C.; for half-life at 1 µM: pooled mouse plasma
Protocol: FIG. 3. Results of plasma stability testing for control peptides. Compounds shown were incubated in mouse plasma at 37° C. at 1 μM concentrations. 40 ul aliquots were removed at the times indicated and the reactions stopped with the addition of 160 μL cold acetonitrile containing 200 ng/ml of peptide internal standard (IS). The incubation solution was centrifuged at 3500 rpm for 10 minutes to precipitate protein. LC/MS/MS analysis was used to determine the % peptide remaining.
Pooled mouse plasma was prepared and stored at −80° C, prior to use, 396 μL mouse plasma was incubated at 37° C. for 5 minutes in 1.5 mL microcentrifuge tubes. 4 μL of 100 μM test or control compound/peptide was added to each tube and incubated for 0.5, 15, 30, 60, 120, or 240 minutes. An aliquot of 40 μL of each reaction was stopped by the addition of 4 volume of cold acetonitrile containing 200 ng/mL of […] solution was centrifuged at 3500 rpm for 10 minutes to precipitate protein. The supernatant was used for LC/MS/MS analysis. The natural log peak area ratio (compound peak area/internal standard peak area) was plotted against time and the gradient of the line determined.

human MC1R = molecular target: T3, human MC1R (Homo sapiens, UniProt Q01726); assay: split-luciferase cAMP sensor assay, agonist mode, hMC1R; format: cell-based; conditions: MC4R versus MC1R
T3 construct: expressed in transfected cells; host or cells: HEK-293 cells stably expressing hMC1R and the GScAMP22F cAMP sensor
Procedure, shortened: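 HEK-293 cells stably expressing hMC1R and the GScAMP22F split-luciferase cAMP sensor, preloaded 120 min at 37° C with D-luciferin in serum-free medium. Peptide responses were taken as peak luminescence over 2-13 min minus 2-min baseline, normalized to the α-MSH ECmax. EC50 was obtained from a four-parameter variable-slope fit.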

[2] = agonist mode, hMC4R stable cell line
[3] = agonist mode, hMC3R stable cell line
[4] = % maximal activation, agonist mode
[5] = 1.0 uM, read-out: Protein Binding 1.0 uM (converted)
[6] = 10.0 uM, read-out: Protein Binding 10.0 uM (converted)
[7] = HEK-293 cells stably expressing hMC4R, agonist mode

T2 sequence (P41968 whole entry): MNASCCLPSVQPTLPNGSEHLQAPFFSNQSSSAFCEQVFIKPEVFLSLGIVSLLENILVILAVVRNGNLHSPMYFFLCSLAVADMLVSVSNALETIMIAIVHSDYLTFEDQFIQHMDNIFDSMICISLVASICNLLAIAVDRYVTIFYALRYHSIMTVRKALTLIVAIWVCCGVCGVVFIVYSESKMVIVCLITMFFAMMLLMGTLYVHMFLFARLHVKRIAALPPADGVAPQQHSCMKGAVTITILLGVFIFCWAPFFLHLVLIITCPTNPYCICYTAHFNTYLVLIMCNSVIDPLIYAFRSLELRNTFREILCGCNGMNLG
T3 sequence (Q01726 whole entry): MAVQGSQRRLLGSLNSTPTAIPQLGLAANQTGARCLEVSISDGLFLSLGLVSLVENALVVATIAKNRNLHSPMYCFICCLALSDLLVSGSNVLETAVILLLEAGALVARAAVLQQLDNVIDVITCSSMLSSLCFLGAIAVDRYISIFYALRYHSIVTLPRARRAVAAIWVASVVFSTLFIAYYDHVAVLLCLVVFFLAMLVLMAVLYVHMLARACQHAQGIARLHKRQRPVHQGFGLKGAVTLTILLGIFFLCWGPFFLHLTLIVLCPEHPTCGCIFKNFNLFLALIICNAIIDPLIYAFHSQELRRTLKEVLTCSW
T1 sequence (P32245 whole entry): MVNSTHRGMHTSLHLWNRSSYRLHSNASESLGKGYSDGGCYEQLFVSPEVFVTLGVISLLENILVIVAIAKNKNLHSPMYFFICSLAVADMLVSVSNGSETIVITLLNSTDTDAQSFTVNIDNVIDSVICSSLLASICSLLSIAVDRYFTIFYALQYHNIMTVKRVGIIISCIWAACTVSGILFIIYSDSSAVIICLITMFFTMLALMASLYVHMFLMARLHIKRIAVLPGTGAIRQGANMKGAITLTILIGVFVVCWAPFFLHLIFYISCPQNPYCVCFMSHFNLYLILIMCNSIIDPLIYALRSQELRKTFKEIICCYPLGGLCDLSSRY

| Structure (SMILES) | MC4R selectivity vs MC1R (human MC4R) | MC4R selectivity vs MC3R (human MC4R) | Emax (human MC4R; [2]) [%] | EC50 (human MC4R; [2]) [nM] | fraction unbound at 5 min, 0.1 µM [1] | fraction unbound at 5 min, 1 µM ([1]; 1.0 uM) | fraction unbound at 5 min, 10 µM ([1]; 10.0 uM) | Emax (human MC3R; [3]) [%] | half-life at 1 µM (Mouse plasma stability) [h] | Emax (human MC4R; [4]) [%] | MC4R selectivity vs MC1R (human MC1R) | Emax (human MC3R; [4]) [%] | MC4R selectivity vs MC3R (human MC3R) | also measured |
| --- | --- | --- | --- | --- | --- | --- | --- | --- | --- | --- | --- | --- | --- | --- |
| CC(=O)N[C@@H](CCCNC(=N)N)C(=O)N[C@H]1CSSC[C@@H](C(N)=O)NC(=O)[C@H](Cc2ccccc2)NC(=O)[C@H](CCCNC(=N)N)NC(=O)[C@@H](Cc2ccc(Br)cc2)NC(=O)[C@H](CCCNC(=N)N)NC(=O)[C@@H](C)NC1=O [CTX-1258, Arg-cyclo(Cys-D-Ala-Arg-D-Phe(4-Br)-Arg-Phe-Cys)] (Ac-RC[dA]R[dPhe(4-Br)]RFC-NH2; disulfide 2-8) | 0.53 | 3.04 | 92 | 2.4 | 0.53 | 0.5 | 0.5 | 36 | > 4 |  |  |  |  |  |
| CC(=O)N[C@@H](CCCNC(=N)N)C(=O)N[C@H]1CSSC[C@@H](C(N)=O)NC(=O)[C@@H](Cc2c[nH]c3ccccc23)NC(=O)[C@H](CCCNC(=N)N)NC(=O)[C@@H](Cc2ccc(Br)cc2)NC(=O)[C@H](CCCNC(=N)N)NC(=O)C(C)(C)NC1=O [CTX-1246, Arg-cyclo(Cys-Aib-Arg-D-Phe(4-Br)-Arg-D-Trp-Cys)] (Ac-RC[Aib]R[dPhe(4-Br)]R[dW]C-NH2; disulfide 2-8 (inferred)) |  |  |  |  | 0.27 | 0.56 | 0.57 | 21 | > 4 |  |  |  |  |  |
| CC(=O)N[C@@H](CCCNC(=N)N)C(=O)N[C@H]1CSSC[C@@H](C(N)=O)NC(=O)[C@H](Cc2c[nH]c3ccccc23)NC(=O)[C@H](CCCNC(=N)N)NC(=O)[C@@H](Cc2ccccc2)NC(=O)[C@H](CCCNC(=N)N)NC(=O)[C@@H](C)NC1=O [CTX-1211, Arg-cyclo(Cys-D-Ala-Arg-D-Phe-Arg-Trp-Cys)] (Ac-RC[dA]R[dF]RWC-NH2; disulfide 2-8 (inferred)) |  |  |  |  | 0.49 | 0.37 | 0.39 |  | > 3 | 96 | 3.12 | 91 | 5.49 |  |
| CC(=O)N[C@@H](CCCNC(=N)N)C(=O)N[C@H]1CSSC[C@@H](C(N)=O)NC(=O)[C@@H](Cc2c[nH]c3ccccc23)NC(=O)[C@H](CCCNC(=N)N)NC(=O)[C@@H](Cc2ccccc2)NC(=O)[C@H](CCCNC(=N)N)NC(=O)[C@H](C)NC1=O [CTX-1268, Arg-cyclo(Cys-Ala-Arg-D-Phe-Arg-D-Trp-Cys)] (Ac-RCAR[dF]R[dW]C-NH2; disulfide 2-8) |  |  |  |  |  |  |  |  |  | 96 | 6.59 | 44 | 30 | fraction unbound at 0.1 uM [1]: 0.48; fraction unbound [1, 5]: 0.42; fraction unbound [1, 6]: 0.38; half-life (Mouse plasma stability): 1.75 h |
| CC(=O)N[C@@H](CCCNC(=N)N)C(=O)N[C@H]1CSSC[C@@H](C(N)=O)NC(=O)[C@H](Cc2c[nH]c3ccccc23)NC(=O)[C@H](CCCNC(=N)N)NC(=O)[C@@H](Cc2ccccc2)NC(=O)[C@H](CCCNC(N)=O)NC(=O)[C@@H](C)NC1=O [CTX-1285, Arg-cyclo(Cys-D-Ala-Cit-D-Phe-Arg-Trp-Cys)] |  |  |  |  | 0.55 | 0.61 | 0.59 |  | > 4 | 94 | 134 | 28 | 2.9 | EC50 (human MC4R; [7]): 1.7 nM |
| CCCC[C@H](NC(=O)[C@H](CCCNC(=N)N)NC(C)=O)C(=O)N[C@H]1CSSC[C@@H](C(N)=O)NC(=O)[C@H](Cc2c[nH]c3ccccc23)NC(=O)[C@H](CCCNC(=N)N)NC(=O)[C@@H](Cc2ccccc2)NC(=O)[C@H](CCCNC(=N)N)NC1=O [CTX-1228, Arg-Nle-cyclo(Cys-Arg-D-Phe-Arg-Trp-Cys)] (Ac-R[Nle]CR[dF]RWC-NH2; disulfide 3-8 (inferred)) |  |  |  |  | 0.63 | 0.61 | 0.61 |  | 0.917 | 102 | 3.16 | 93 | 8.38 | EC50 (human MC3R; HEK-293 cells stably expressing hMC3R, agonist mode, read-out: MC3R cAMP EC50): 1.6 nM |
| COc1ccc(C[C@H]2NC(=O)[C@H](CCCNC(=N)N)NC(=O)[C@@H](C)NC(=O)[C@@H](NC(=O)[C@H](CCCNC(=N)N)NC(C)=O)CSSC[C@@H](C(N)=O)NC(=O)[C@@H](Cc3c[nH]c4ccccc34)NC(=O)[C@H](CCCNC(=N)N)NC2=O)cc1 [CTX-1238, Arg-cyclo(Cys-D-Ala-Arg-D-Tyr(O-Me)-Arg-D-Trp-Cys)] (Ac-RC[dA]R[dY](Me)R[dW]C-NH2; disulfide 2-8 (inferred)) | 0.44 | 0.49 | 79 |  | 0.47 | 0.53 | 0.59 | 21 | 2.87 |  |  |  |  |  |
| CC[C@H]1NC(=O)[C@@H](NC(=O)[C@H](CCCNC(=N)N)NC(C)=O)CSSC[C@@H](C(N)=O)NC(=O)[C@@H](Cc2c[nH]c3ccccc23)NC(=O)[C@H](CCCNC(=N)N)NC(=O)[C@@H](Cc2ccc(Br)cc2)NC(=O)[C@H](CCCNC(=N)N)NC1=O [CTX-1247, Arg-cyclo(Cys-D-Abu-Arg-D-Phe(4-Br)-Arg-D-Trp-Cys)] (Ac-RC[dAbu]R[dPhe(4-Br)]R[dW]C-NH2; disulfide 2-8 (inferred)) | 0.43 | 2.05 | 75 | 3.3 | 0.51 | 0.47 | 0.47 | 13 | 3.32 |  |  |  |  |  |
| CC(=O)N[C@@H](CCCNC(=N)N)C(=O)N[C@H]1CSSC[C@@H](C(N)=O)NC(=O)[C@@H](Cc2ccccc2)NC(=O)[C@H](CCCNC(=N)N)NC(=O)[C@@H](Cc2ccccc2)NC(=O)[C@H](CCCNC(=N)N)NC(=O)[C@@H](C)NC1=O [CTX-1257, Arg-cyclo(Cys-D-Ala-Arg-D-Phe-Arg-D-Phe-Cys)] (Ac-RC[dA]R[dF]R[dF]C-NH2; disulfide 2-8 (inferred)) |  |  |  |  |  |  |  |  |  |  | 0.02 |  | 0.06 | MC4R cAMP % max activation (human MC4R; [4]): (94%); EC50 (human MC4R; [7]): 692 nM; MC3R cAMP % max activation (human MC3R; [4]): (88%) |
| CC(=O)N[C@@H](CCCNC(=N)N)C(=O)N[C@H]1CSSC[C@@H](C(N)=O)NC(=O)[C@@H](Cc2c[nH]c3ccccc23)NC(=O)[C@H](CCCNC(=N)N)NC(=O)[C@@H](Cc2ccc(F)cc2)NC(=O)[C@H](CCCNC(=N)N)NC(=O)[C@@H](C)NC1=O [CTX-1236, Arg-cyclo(Cys-D-Ala-Arg-D-Phe(4-F)-Arg-D-Trp-Cys)] (Ac-RC[dA]R[dPhe(4-F)]R[dW]C-NH2; disulfide 2-8) | 2.01 | 1.36 | 97 | 1.9 |  |  |  | 66 |  |  |  |  |  | fraction unbound at 0.1 uM [1]: 0.55; fraction unbound [1, 5]: 0.51; fraction unbound [1, 6]: 0.49; half-life (Mouse plasma stability): 3.78 h |
